The text below walks through data of patent US4992469A, “Method of obtaining an antiplatelet effect” (Eisai Co., Ltd., priority 1984, dated 1991).

Structures are written as SMILES. Where two headings read alike, the source gives them in different places.

The subject of one experiment is Phospholipase A2. Put plainly: Phospholipase A2 inhibition (myristic acid liberated from myristyllecithin, HPLC). In kind it is biochemical. How it is done:
Prior to the determination of the activity of phospholipase A by determining myristic acid liberated from a substrate (myristyllecithin) by said enzyme by high-performance liquid chromatography, the following test compounds were added in amounts as shown in Table 1 to examine the effects thereof.
CoQ10 was employed for the purpose of comparison. [drawing 17]
Each value in Table 1 represents the evaluation of the corresponding compound assuming the value of a physiological saline solution as 100 and indicates the phospholipase A2 inhibition activity thereof.

The next experiment relates to human platelets. In words: Repression of human platelet agglutination in vitro (PRP; PAF, collagen or ADP as inducer). In kind it is cell-based. To be noted: for inhibition at 100 µM: test compound 100 μM; for inhibition at 200 µM: test compound 200 μM; for inhibition at 20 µM: test compound 20 μM; for inhibition at 50 µM: test compound 50 μM. How it is done:
Effects of repressing human platelet agglutination of the compounds of the present invention were examined in vitro. Platelet agglutination test was carried out in the following manner with the use of PAF (platelet activating factor; 1-alkyl-2-acetyl-sn-glycero-3-phosphocholine), collagen and ADP as inducers.
Blood was collected from the venae brachiales of a healthy adult in an amount of nine parts by volume to one part by volume of a 3.8% sodium citrate solution. The blood was centrifuged at 100 ×g for eight min and PRP separated as the supernatant was collected.
To 0.2 ml of the PRP as prepared above, 25 μl portions of test solutions in various concentrations were added and each mixture was incubated at 37° C. for three min. 25 μl of the abovementioned inducer solution was added thereto to induce agglutination. PAF, collagen and ADP were added as inducers to the final concentrations of 100 ng/ml, 1 μg/ml and 5 μM, respectively. Platelet agglutination was determined with an aggregometer (a product of Niko Bioscience Co., Ltd.) by the method of Mustard et al. (cf. Mustard, J.F., Hegaldt, B., Rosewell, H.C., MacMillan, R.C., J. Lab. Clin. Med., 64, 548-559 (1964)). The repressing effect of each test compound was evaluated as the repression ratio with the use of PRP containing vehicle as control.
(3) The following compounds were tested. Compounds A to D are as defined in Experimental Example 1. [drawing 18]
Each figure in Table 2 represents the repression ratio (%) of the corresponding compound.

Setting [1] is: inducer ADP 5 μM, read-out: repression ratio of platelet agglutination, ADP.
Where [2] appears, read: inducer PAF 100 ng/ml, read-out: repression ratio of platelet agglutination, PAF.
[3] abbreviates: inducer collagen 1 μg/ml, read-out: repression ratio of platelet agglutination, Collagen.

For `COC1=C(OC)C(=O)C(C/C=C(\C)CC/C=C(\C)CC/C=C(\C)CC/C=C(\C)CC/C=C(\C)CC/C=C(\C)CC/C=C(\C)CC/C=C(\C)CC/C=C(\C)CCC=C(C)C)=C(C)C1=O` [CoQ10, Ubidecarenone, reference compound], the “Phospholipase A activity (physiological saline = 100)” value in the experiment on Phospholipase A2 (final concentration 43 μM) amounted to 56%. Also, the results for the inhibition at 100 µM in the experiment with human platelets (setting [1]), with human platelets (setting [2]) and in the experiment on human platelets (setting [3]) were 8.7%, 16.2% and 18.7%, respectively. Also, the inhibition at 200 µM with human platelets (setting [1]) was 11.3%; in the experiment with human platelets (setting [2]), 19%. The inhibition at 20 µM in the experiment on human platelets (setting [2]) was 8%; with human platelets (setting [3]), 6.5%.

Take `COC1=C(OC)C(=O)C(C/C=C(\C)CC/C=C(\C)CC/C=C(\C)CC/C=C(\C)C(=O)O)=C(C)C1=O` [Compound A]: in the experiment with Phospholipase A2 (final concentration 4 μM), the “Phospholipase A activity (physiological saline = 100)” value is on record as 66%. In the experiment with human platelets (setting [1]), the inhibition at 20 µM was determined as 12.4%, the inhibition at 50 µM came to 2.1%, the inhibition at 100 µM was 22.1% and the inhibition at 200 µM was 23.1%. Further, in the experiment on human platelets (setting [2]), the inhibition at 20 µM was found to be 27.8%, the inhibition at 50 µM stood at 36%, the inhibition at 100 µM is 42.6% and the inhibition at 200 µM worked out at 52.9%. Besides, in the experiment on human platelets (setting [3]), the inhibition at 20 µM is 62.4% and the inhibition at 100 µM stood at 86.6%.

In the case of `COc1c(O)c(C)c(C/C=C(\C)CC/C=C(\C)CC/C=C(\C)CC/C=C(\C)C(=O)O)c(OC)c1OC` [Compound B], the “Phospholipase A activity (physiological saline = 100)” value with Phospholipase A2 (final concentration 4 μM) came out at 55%. Besides, in the experiment on human platelets (setting [1]), the inhibition at 20 µM is 12.9%, the inhibition at 50 µM is 24.8%, the inhibition at 100 µM was 21.5% and the inhibition at 200 µM amounted to 24.2%. For the same compound, in the experiment with human platelets (setting [2]), the inhibition at 20 µM was determined as 21.6%, the inhibition at 50 µM is 36.8%, the inhibition at 100 µM was found to be 38.4% and the inhibition at 200 µM came to 51.6%. In the experiment with human platelets (setting [3]), the inhibition at 20 µM is 21.4% and the inhibition at 100 µM is 69.6%.

As for `COC1=C(OC)C(=O)C(C/C=C(\C)CC/C=C(\C)CC/C=C(\C)C(=O)O)=C(C)C1=O` [Compound C], in the experiment on Phospholipase A2 (final concentration 4 μM), the “Phospholipase A activity (physiological saline = 100)” value was found to be 25%. Also, in the experiment with human platelets (setting [1]), the inhibition at 200 µM turned out to be 18.3%. Moreover, in the experiment on human platelets (setting [2]), the inhibition at 20 µM came out at 3.5%, the inhibition at 50 µM came out at 3.4%, the inhibition at 100 µM was 12.2% and the inhibition at 200 µM was 47.3%. In the experiment with human platelets (setting [3]), the inhibition at 20 µM was found to be 3.2% and the inhibition at 100 µM was 17.2%.

Take `COc1c(O)c(C)c(C/C=C(\C)CC/C=C(\C)CC/C=C(\C)C(=O)O)c(OC)c1OC` [Compound D]: in the experiment on Phospholipase A2 (final concentration 4 μM), the “Phospholipase A activity (physiological saline = 100)” value came to 24%. Also, in the experiment with human platelets (setting [1]), the inhibition at 50 µM was 9%, the inhibition at 100 µM amounted to 13.5% and the inhibition at 200 µM amounted to 21.3%. In the experiment on human platelets (setting [2]), the inhibition at 20 µM turned out to be 4.5%, the inhibition at 50 µM was 23.8%, the inhibition at 100 µM is 26% and the inhibition at 200 µM turned out to be 51.5%. In addition, in the experiment with human platelets (setting [3]), the inhibition at 20 µM was 2.8% and the inhibition at 100 µM was found to be 39.3%.

For the compound `COc1c(O)c(C)c(C/C=C(\C)CC/C=C(\C)C(=O)O)c(OC)c1OC` [Compound E], in the experiment on human platelets (setting [1]), the inhibition at 100 µM amounted to 10.7% and the inhibition at 200 µM is 23%. Further, in the experiment with human platelets (setting [2]), the inhibition at 20 µM came to 3.03%, the inhibition at 50 µM was determined as 28.1%, the inhibition at 100 µM came out at 32.5% and the inhibition at 200 µM amounted to 45.4%. In the experiment with human platelets (setting [3]), the inhibition at 20 µM came out at 45.4% and the inhibition at 100 µM was 75.8%.

Consider `COc1c(O)c(C)c(C/C=C(\C)CC/C=C(\C)CC/C=C(\C)CC/C=C(\C)CC/C=C(\C)C(=O)O)c(OC)c1OC` [Compound F], for which, in the experiment with human platelets (setting [1]), the inhibition at 100 µM was found to be 6.7% and the inhibition at 200 µM was determined as 26.3%. In addition, in the experiment on human platelets (setting [2]), the inhibition at 50 µM is 5.9%, the inhibition at 100 µM worked out at 9.3% and the inhibition at 200 µM came out at 49%. Also, in the experiment with human platelets (setting [3]), the inhibition at 20 µM came to 5% and the inhibition at 100 µM is 15.8%.

For the compound `COc1c(O)c(C)c(C/C=C(\C)CC/C=C(\C)CC/C=C(\C)CC/C=C(\C)CC/C=C(\C)CC/C=C(\C)C(=O)O)c(OC)c1OC` [Compound G], in the experiment on human platelets (setting [1]), the inhibition at 100 µM was 14% and the inhibition at 200 µM is 23.1%. For the same compound, in the experiment with human platelets (setting [2]), the inhibition at 50 µM is 8.1%, the inhibition at 100 µM turned out to be 12.8% and the inhibition at 200 µM is 59.8%. The inhibition at 100 µM with human platelets (setting [3]) came to 30.2%.

`COC1=C(OC)C(=O)C(C/C=C(\C)CC/C=C(\C)C(=O)O)=C(C)C1=O` [Compound H]: in the experiment on human platelets (setting [1]), the inhibition at 100 µM stood at 8.8% and the inhibition at 200 µM came to 18.2%. Moreover, in the experiment on human platelets (setting [2]), the inhibition at 20 µM came out at 8.8%, the inhibition at 50 µM is 28.2%, the inhibition at 100 µM was found to be 37.8% and the inhibition at 200 µM came out at 47.3%. In addition, in the experiment on human platelets (setting [3]), the inhibition at 20 µM came to 38.1% and the inhibition at 100 µM came to 84.3%.

For the compound `COC1=C(OC)C(=O)C(C/C=C(\C)CC/C=C(\C)CC/C=C(\C)CC/C=C(\C)CC/C=C(\C)C(=O)O)=C(C)C1=O` [Compound I], in the experiment with human platelets (setting [1]), the inhibition at 100 µM came out at 3.9% and the inhibition at 200 µM is 22%. In addition, in the experiment with human platelets (setting [2]), the inhibition at 20 µM was determined as 2.8%, the inhibition at 50 µM came out at 3.9%, the inhibition at 100 µM came to 10.8% and the inhibition at 200 µM was 53.3%. In addition, the inhibition at 100 µM in the experiment with human platelets (setting [3]) was found to be 24.1%.

With `COC1=C(OC)C(=O)C(C/C=C(\C)CC/C=C(\C)CC/C=C(\C)CC/C=C(\C)CC/C=C(\C)CC/C=C(\C)C(=O)O)=C(C)C1=O` [Compound J], in the experiment with human platelets (setting [1]), the inhibition at 50 µM turned out to be 16.5%, the inhibition at 100 µM amounted to 27.1% and the inhibition at 200 µM came out at 30.1%. In addition, in the experiment with human platelets (setting [2]), the inhibition at 20 µM is 6%, the inhibition at 50 µM is 2.7%, the inhibition at 100 µM was determined as 24.9% and the inhibition at 200 µM was 65.3%. Besides, in the experiment with human platelets (setting [3]), the inhibition at 100 µM was determined as 22%.
